“And” between values parts separate entries of the source, which are not always exact repeats. Equal entries are not always repeated. Where two headings read alike, the source gives them in different places.
Target: T1, canine TRPM8 (Canis lupus familiaris, UniProt Q1A7N1)
T1 construct: expressed in transfected cells
Assay: In vitro canine TRPM8 functional assay (Ca2+-sensitive dye, FLIPR/FDSS, icilin activation)
Format: cell-based
Settings: HEK293 cells expressing canine TRPM8, icilin activation; for % I (0.5 μM): 0.5 μM compound; for IC50: eight-point dose-response; for % I (1 μM): 1 μM compound; for % I (5 μM): 5 μM compound
In short: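 Icilin challenge (final concentration producing ~80% of maximal response) followed a 5 min compound exposure in canine TRPM8-HEK293 cells dye-loaded with Calcium 3. Intracellular Ca2+ was read on FLIPR/FDSS. EC50 and IC50 values came from nonlinear sigmoidal dose-response fits of basal-subtracted, percent-of-maximum data averaged over quadruplicates.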

[1] = HEK293, read-out: % I (1 μM), 1 μM compound
[2] = HEK293, 1 μM compound, read-out: % I (1 μM)

T1 sequence (Q1A7N1 1-1104): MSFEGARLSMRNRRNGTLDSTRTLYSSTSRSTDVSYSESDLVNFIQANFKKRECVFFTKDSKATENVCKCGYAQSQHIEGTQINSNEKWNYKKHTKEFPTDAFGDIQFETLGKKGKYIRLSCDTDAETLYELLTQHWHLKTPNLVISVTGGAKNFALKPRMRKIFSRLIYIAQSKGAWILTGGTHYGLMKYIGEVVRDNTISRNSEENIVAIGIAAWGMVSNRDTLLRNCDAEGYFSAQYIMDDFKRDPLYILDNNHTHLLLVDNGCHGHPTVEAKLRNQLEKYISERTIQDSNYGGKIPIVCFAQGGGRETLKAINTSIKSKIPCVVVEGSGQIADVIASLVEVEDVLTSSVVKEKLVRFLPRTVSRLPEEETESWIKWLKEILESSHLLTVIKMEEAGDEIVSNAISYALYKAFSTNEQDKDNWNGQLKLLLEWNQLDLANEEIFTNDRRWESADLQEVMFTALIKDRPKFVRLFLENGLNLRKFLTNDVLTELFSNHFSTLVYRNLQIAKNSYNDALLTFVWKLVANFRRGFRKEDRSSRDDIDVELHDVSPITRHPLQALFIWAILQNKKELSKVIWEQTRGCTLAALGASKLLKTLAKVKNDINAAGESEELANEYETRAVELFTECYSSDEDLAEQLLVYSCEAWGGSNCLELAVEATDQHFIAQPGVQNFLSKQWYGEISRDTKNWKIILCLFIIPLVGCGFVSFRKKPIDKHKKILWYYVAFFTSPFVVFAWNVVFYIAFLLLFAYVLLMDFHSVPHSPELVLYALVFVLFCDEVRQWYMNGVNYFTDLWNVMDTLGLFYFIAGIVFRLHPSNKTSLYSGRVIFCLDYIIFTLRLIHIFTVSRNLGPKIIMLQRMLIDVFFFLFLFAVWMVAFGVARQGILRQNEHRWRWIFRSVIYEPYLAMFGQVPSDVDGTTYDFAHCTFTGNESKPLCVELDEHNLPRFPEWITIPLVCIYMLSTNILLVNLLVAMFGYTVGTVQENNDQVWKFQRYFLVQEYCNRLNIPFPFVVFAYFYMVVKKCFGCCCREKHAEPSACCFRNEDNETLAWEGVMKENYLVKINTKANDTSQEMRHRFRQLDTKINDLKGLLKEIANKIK

| Compound | % I (0.5 μM) | IC50 (read-out: IC50) | % I (1 μM) | further results |
| --- | --- | --- | --- | --- |
| CCOP(=O)(OCC)C(Cc1ccc(OC)c(C(F)(F)F)c1)c1sc2ccccc2c1Br (racemic) [Cpd 152] | 102% and 92% | 0.054 µM and 0.05 µM | – | – |
| CCOP(=O)(OCC)C(Cc1ccc(S(=O)(=O)C(F)(F)F)cc1)c1sc2ccccc2c1Cl (racemic) [Cpd 300] | 103% | 0.089 µM | – | – |
| CCOP(=O)(OCC)C(Cc1c(F)c(F)c(O)c(F)c1F)c1sc2ccccc2c1Br (racemic) [Cpd 228] | 94% | 0.129 µM | – | – |
| CCOP(=O)(OCC)C(Cc1ccc(F)c(F)c1)c1sc2ccccc2c1-c1ccccc1F (racemic) [Cpd 216] | 100% | 0.126 µM | – | – |
| CCOP(=O)(OCC)C(Cc1c(Cl)cccc1Cl)c1cc2ccccc2s1 (centres unmarked) [Cpd 95] | – | 0.6 µM | 89% | % I (5 μM): 100% |
| CCOP(=O)(OCC)C(Cc1ccc(F)c(F)c1)c1sc2cccc(Cl)c2c1C (centres unmarked) [Cpd 65, [1-(4-Chloro-3-methyl-benzo[b]thiophen-2-yl)-2-(3,4-difluoro-phenyl)-ethyl]-phosphonic acid diethyl ester] | – | – | – | inhibition at 1 µM [1]: 100%; IC50 (IC50 (μM)): 0.3 µM |
| CC(C)OP(=O)(OC(C)C)C(Cc1ccccc1C(F)(F)F)c1sc2ccccc2c1Cl (racemic) [Cpd 173] | 103% | 0.14 µM | – | – |
| CC(C)OP(=O)(OC(C)C)C(Cc1cccc(SC(F)(F)F)c1)c1sc2ccccc2c1Br (centres unmarked) [Cpd 250] | 103% | 0.048 µM | – | – |
| CCOP(=O)(OCC)C(Cc1ccc(C(F)(F)F)cc1F)c1sc2ccccc2c1Cl (racemic) [Cpd 291] | 103% | 0.156 µM | – | – |
| CCOP(=O)(OCC)C(C)(Cc1ccc(F)c(F)c1)c1sc2ccccc2c1C (centres unmarked) [Cpd 79, [2-(3,4-Difluoro-phenyl)-1-methyl-1-(3-methyl-benzo[b]-thiophen-2-yl)-ethyl]-phosphonic acid diethyl ester] | – | – | – | inhibition at 1 µM [1]: 88%; IC50 (IC50 (μM)): 0.43 µM |
| CCOP(=O)(OCC)C(Cc1ccc(F)c(F)c1)c1cc2cccnc2s1 (centres unmarked) [Cpd 131] | – | – | 28% | – |
| CCOP(=O)(OCC)C(Cc1cc(F)cc(C(F)(F)F)c1)c1sc2ccccc2c1Br (centres unmarked) [Cpd 140] | 102% | 0.056 µM | – | – |
| CC(C)OP(=O)(OC(C)C)C(Cc1ccc(Cl)cc1)c1sc2ccccc2c1Cl (centres unmarked) [Cpd 181] | 103% | 0.112 µM | – | – |
| CCOP(=O)(OCC)C(Cc1ccccc1Cl)c1sc2ccccc2c1C (centres unmarked) [Cpd 48] | – | 0.169 µM | 100% | – |
| CCOP(=O)(OCC)C(Cc1cccc(OC(F)(F)F)c1)c1sc2ccccc2c1Br (racemic) [Cpd 145] | 103% and 102% | 0.119 µM and 0.116 µM | – | – |
| CC(C)OP(=O)(OC(C)C)C(Cc1cccc(F)c1F)c1cc2ccccc2s1 (centres unmarked) [Cpd 122] | – | 0.35 µM | 102% | – |
| CC(C)OP(=O)(OC(C)C)C(Cc1ccc(F)c(F)c1)c1cc2ccccc2s1 (centres unmarked) [Cpd 63, [1-Benzo[b]thiophen-2-yl-2-(3,4-difluoro-phenyl)-ethyl]-phosphonic acid diisopropyl ester] | – | 0.3 µM | – | inhibition at 1 µM [2]: 100% |
| CCOP(=O)(OCC)C(Cc1ccc(F)c(F)c1)c1sc2ccccc2c1-c1cccc(C(N)=O)c1 (racemic) [Cpd 218] | 79% | 0.483 µM | – | – |
| CC(C)OP(=O)(OC(C)C)C(Cc1ccc(C(F)(F)F)cc1F)c1sc2ccccc2c1Br (racemic) [Cpd 289] | 103% | 0.051 µM | – | – |

| Compound | % I (0.5 μM) | IC50 (read-out: IC50) | % I (1 μM) | further results |
| --- | --- | --- | --- | --- |
| CC(C)OP(=O)(OC(C)C)C(Cc1cccc(Cl)c1)c1cc2ccccc2s1 (centres unmarked) [Cpd 134] | – | 0.34 µM | 101% | – |
| CSc1ccc(CC(c2sc3ccccc3c2Cl)P(=O)(OC(C)C)OC(C)C)cc1 (centres unmarked) [Cpd 256] | 103% | 0.056 µM | – | – |
| CC(C)OP(=O)(OC(C)C)C(Cc1ccc(F)cc1C(F)(F)F)c1sc2ccccc2c1Br (centres unmarked) [Cpd 249] | 103% | 0.054 µM | – | – |
| CC(C)OP(=O)(OC(C)C)C(Cc1cccc(C(F)(F)F)c1)c1cc2ccccc2s1 (centres unmarked) [Cpd 69] | – | 0.35 µM | 99% | – |
| CC(C)OP(=O)(OC(C)C)C(Cc1ccc(Cl)c(F)c1)c1sc2ccccc2c1Cl (racemic) [Cpd 302] | 103% | 0.079 µM | – | – |
| CCOP(=O)(OCC)C(Cc1ccc(C(F)(F)F)c(F)c1)c1sc2ccccc2c1Br (racemic) [Cpd 144] | 101% | 0.058 µM | – | – |
| CC(C)OP(=O)(OC(C)C)C(Cc1cc(C(F)(F)F)ccc1Cl)c1sc2ccccc2c1Cl (centres unmarked) [Cpd 178] | 79% | 0.355 µM | – | – |
| CC(C)OP(=O)(OC(C)C)C(Cc1ccc(F)c(F)c1)c1sc2ccccc2c1C(F)(F)F (centres unmarked) [Cpd 43, [2-(3,4-Difluoro-phenyl)-1-(3-trifluoromethyl-benzo[b]-thiophene-2-yl)-ethyl]-phosphonic acid diisopropyl ester] | – | 0.16 µM | – | inhibition at 1 µM [2]: 100% |
| CCOP(=O)(OCC)C(Cc1cc2ccccc2s1)c1cc2ccccc2s1 (centres unmarked) [Cpd 90] | – | 0.54 µM | 89% | – |
| CCOP(=O)(OCC)C(Cc1cc2c(cc1Cl)OCO2)c1cc2ccccc2s1 (centres unmarked) [Cpd 112] | – | – | 42% | – |
| COc1cc(CC(c2sc3ccccc3c2Br)P(=O)(OC(C)C)OC(C)C)c(F)cc1Cl (racemic) [Cpd 165] | 102% | 0.086 µM | – | – |
| CCOP(=O)(OCC)C(Cc1ccc(F)c(F)c1)c1c(C)c2ccccc2[s+]1[O-] (centres unmarked) [Cpd 118] | – | – | 23% | – |
| CCOP(=O)(OCC)C(Cc1ccc(O)cc1)c1sc2ccccc2c1Br (centres unmarked) [Cpd 324] | 54% | – | – | – |
| CCOP(=O)(OCC)C(Cc1cc(O)c(Cl)cc1F)c1sc2ccccc2c1Br (racemic) [Cpd 231] | 98% | 0.122 µM | – | – |
| CCOP(=O)(OCC)C(Cc1ccccc1C(F)(F)F)c1sc2ccccc2c1C (centres unmarked) [Cpd 59] | – | 0.27 µM | 99% | – |
| CCOP(=O)(OCC)C(Cc1ccc(OC(F)(F)F)cc1)c1sc2ccccc2c1Cl (centres unmarked) [Cpd 277] | 103% | 0.116 µM | – | – |
| CCOP(=O)(OCC)C(Cc1cccc(C(F)(F)F)c1Cl)c1sc2ccccc2c1C (centres unmarked) [Cpd 81] | – | 0.44 µM and 0.61 µM | 100% and 87% | – |
| CCOP(=O)(OCC)C(Cc1ccc(F)c(F)c1)c1sc2cc(Cl)ccc2c1C1CCCC1 (centres unmarked) [Cpd 117, [1-(6-Chloro-3-cyclopentyl-benzo[b]thiophen-2-yl)-2-(3,4-difluoro-phenyl)-ethyl]-phosphonic acid diethyl ester] | – | – | – | inhibition at 1 µM [1]: 28% |
| COc1ccc(CC(c2sc3ccccc3c2Br)P(=O)(OC(C)C)OC(C)C)c(F)c1 (racemic) [Cpd 163] | 103% | 0.02 µM | – | – |

| Compound | % I (0.5 μM) | IC50 (read-out: IC50) | % I (1 μM) | further results |
| --- | --- | --- | --- | --- |
| CCOP(=O)(OCC)C(Cc1cc(F)cc(C(F)(F)F)c1)c1sc2ccccc2c1Cl (centres unmarked) [Cpd 278] | 103% | 0.159 µM | – | – |
| CCOP(=O)(OCC)C(Cc1ccc(SC)cc1)c1sc2ccccc2c1Br (racemic) [Cpd 247] | 103% | 0.121 µM | – | – |
| CC(C)OP(=O)(OC(C)C)C(Cc1cccc(O)c1F)c1sc2ccccc2c1Br (racemic) [Cpd 230] | 97% | 0.01 µM | – | – |
| [2-(3,4-Difluoro-phenyl)-1-(3-methyl-benzo[b]thiophene-2-yl)-ethyl]-[3-(4-methoxy-phenyl)-propyl]-phosphonic acid ethyl ester [Cpd 135] | – | 0.41 µM | 90% | – |
| CC(C)OP(=O)(OC(C)C)C(Cc1cc(F)cc(C(F)(F)F)c1)c1sc2ccccc2c1Cl (racemic) [Cpd 169] | 104% | 0.096 µM | – | – |
| CCOP(=O)(OCC)C(Cc1cc(OC)c(Cl)cc1F)c1sc2ccccc2c1Br (racemic) [Cpd 164] | 94% | 0.082 µM | – | – |
| CCOP(=O)(OCC)C(Cc1ccccc1Br)c1sc2ccccc2c1C (centres unmarked) [Cpd 66] | – | 0.33 µM | 100% | – |
| CC(C)OP(=O)(OC(C)C)C(Cc1cc(C(F)(F)F)cc(Cl)c1F)c1cc2ccccc2s1 (centres unmarked) [Cpd 126] | – | 0.41 µM | 100% | – |
| CCOP(=O)(OCC)C(Cc1ccc(F)c(F)c1)c1sc2c(C(F)(F)F)cccc2c1C (centres unmarked) [Cpd 116] | – | – | 64% | – |
| CCOP(=O)(OCC)C(Cc1ccc2ccccc2c1)c1sc2ccccc2c1C (centres unmarked) [Cpd 46] | – | 0.167 µM | 99% | – |
| COc1cccc(CC(c2sc3ccccc3c2Br)P(=O)(OC(C)C)OC(C)C)c1 (centres unmarked) [Cpd 317] | 102% | 0.021 µM | – | – |
| CCOP(=O)(Cc1cc2ccccc2s1)OCc1ccccc1Br (centres unmarked) [Cpd 110] | – | 2.32 µM | 11% | % I (5 μM): 96% |
| CC(C)OP(=O)(OC(C)C)C(Cc1ccc(Cl)cc1)c1sc2ccccc2c1Br (racemic) [Cpd 288] | 103% | 0.065 µM | – | – |
| CC(C)OP(=O)(OC(C)C)C(Cc1ccc(F)c(F)c1)c1oc2cccc(F)c2c1Br (racemic) [Cpd 205] | – | 0.05 µM | 101% | – |
| CC(C)OP(=O)(OC(C)C)C(Cc1cccc(Cl)c1)c1sc2ccccc2c1Cl (centres unmarked) [Cpd 180] | 103% | 0.075 µM | – | – |
| CCOP(=O)(OCC)C(Cc1cc(C(F)(F)F)cc(C(F)(F)F)c1)c1cc2ccccc2s1 (centres unmarked) [Cpd 96] | – | 0.64 µM | 92% | – |
| CC(C)OP(=O)(OC(C)C)C(Cc1ccc(Cl)c(C(F)(F)F)c1)c1sc2ccccc2c1Cl (racemic) [Cpd 167] | 104% | 0.097 µM | – | – |
| CC(C)OP(=O)(OC(C)C)C(Cc1ccc(OC(F)(F)F)cc1)c1sc2ccccc2c1Cl (centres unmarked) [Cpd 187] | 103% | 0.062 µM | – | – |
| CCOP(=O)(OCC)C(Cc1ccc(F)c(F)c1)c1sc2ccccc2c1-c1ccccc1O (racemic) [Cpd 215] | 101% | 0.085 µM | – | – |

Source: patent US20080287398A1, “COLD MENTHOL RECEPTOR-1 ANTAGONISTS” (priority 2007, published 2008)
